# According to ChEMBL document CHEMBL3808318, “Design, synthesis and inhibitory activity against human dihydroorotate dehydrogenase (hDHODH) of 1,3-benzoazole derivatives bearing amide units” (Bioorg Med Chem Lett, 2016):
# Columns and labels:
# [1] = biological target: T1, Dihydroorotate dehydrogenase (quinone), mitochondrial (Homo sapiens, UniProt Q02127); test: Inhibition of human DHODH assessed as decrease in DCIP at 10 uM using dihydroorotate as substrate measured every 30 seconds for 6 mins
# T1 sequence (Q02127 whole entry): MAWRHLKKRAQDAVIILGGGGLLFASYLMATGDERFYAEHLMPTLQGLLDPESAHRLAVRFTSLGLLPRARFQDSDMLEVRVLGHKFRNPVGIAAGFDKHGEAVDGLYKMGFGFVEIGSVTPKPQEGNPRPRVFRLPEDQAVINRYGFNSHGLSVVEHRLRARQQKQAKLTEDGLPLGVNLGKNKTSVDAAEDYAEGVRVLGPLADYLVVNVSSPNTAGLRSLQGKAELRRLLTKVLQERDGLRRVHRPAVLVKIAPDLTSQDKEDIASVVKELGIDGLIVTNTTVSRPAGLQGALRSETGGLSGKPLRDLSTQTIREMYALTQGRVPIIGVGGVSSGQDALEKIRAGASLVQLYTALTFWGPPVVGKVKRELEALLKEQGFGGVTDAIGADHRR
# [2] = biological target: T1, Dihydroorotate dehydrogenase (quinone), mitochondrial; test: Inhibition of human DHODH assessed as decrease in DCIP using dihydroorotate as substrate measured every 30 seconds for 6 mins
# [3] = biological target: T1, Dihydroorotate dehydrogenase (quinone), mitochondrial; test: Potency index, ratio of A771726 IC50 to compound IC50 for human DHODH
SMILES,inhibition [1],IC50 [2],Ratio IC50 [3]
CCNC(=O)c1cccc2nc(-c3cc(Br)nn3-c3ncccc3Cl)[nH]c12,24.9%,,
Cc1cccc(NC(=O)c2cccc3nc(-c4cc(Br)nn4-c4ncccc4Cl)[nH]c23)c1,18.9%,,
COc1ccc(C(F)(F)F)cc1NC(=O)c1cccc2nc(-c3cc(Br)nn3-c3ncccc3Cl)[nH]c12,55.2%,4850 nM,
CCCNC(=O)c1cccc2nc(-c3cc(Br)nn3-c3ncccc3Cl)[nH]c12,23.4%,,
Cc1ccccc1NC(=O)c1cccc2nc(-c3cc(Br)nn3-c3ncccc3Cl)[nH]c12,73.9%,676 nM,
O=C(Nc1ccccc1F)c1cccc2nc(-c3cc(Br)nn3-c3ncccc3Cl)[nH]c12,38.8%,,
COc1cccc(F)c1NC(=O)c1cccc2nc(-c3cc(Br)nn3-c3ncccc3Cl)[nH]c12,15.7%,,
COc1cccc(C)c1NC(=O)c1cccc2nc(-c3cc(Br)nn3-c3ncccc3Cl)[nH]c12,9.43%,,
Cc1ccc(CNC(=O)c2cccc3nc(-c4cc(Br)nn4-c4ncccc4Cl)[nH]c23)cc1,22.7%,,
O=C(Nc1ccccc1I)c1cccc2nc(-c3cc(Br)nn3-c3ncccc3Cl)[nH]c12,24.8%,,
O=C(NCc1ccccc1)c1cccc2nc(-c3cc(Br)nn3-c3ncccc3Cl)[nH]c12,34.9%,,
O=C(Nc1ccccc1Br)c1cccc2nc(-c3cc(Br)nn3-c3ncccc3Cl)[nH]c12,27.6%,,
O=C(NCc1ccc(Cl)cc1)c1cccc2nc(-c3cc(Br)nn3-c3ncccc3Cl)[nH]c12,44%,,
O=C(NCc1ccccn1)c1cccc2nc(-c3cc(Br)nn3-c3ncccc3Cl)[nH]c12,27.6%,,
CCCNC(=O)c1cccc2nc(-c3cc(Br)nn3-c3ncccc3Cl)oc12,26.6%,,

# Other lines, results leading:
inhibition [1],IC50 [2],Ratio IC50 [3],SMILES
48.8%,,,Cc1ccc(NC(=O)c2cccc3nc(-c4cc(Br)nn4-c4ncccc4Cl)[nH]c23)c(C)c1
31.9%,,,O=C(Nc1ccc(F)c(F)c1F)c1cccc2nc(-c3cc(Br)nn3-c3ncccc3Cl)[nH]c12
36.3%,,,O=C(Nc1ccc(C(F)(F)F)cc1)c1cccc2nc(-c3cc(Br)nn3-c3ncccc3Cl)[nH]c12
0%,,,COc1cccc(OC)c1NC(=O)c1cccc2nc(-c3cc(Br)nn3-c3ncccc3Cl)[nH]c12
26.9%,,,O=C(Nc1ccc(F)cc1F)c1cccc2nc(-c3cc(Br)nn3-c3ncccc3Cl)[nH]c12
36.1%,,,COc1ccc(NC(=O)c2cccc3nc(-c4cc(Br)nn4-c4ncccc4Cl)[nH]c23)cc1
64%,,,C/C(O)=C(\C#N)C(=O)Nc1ccc(C(F)(F)F)cc1
14.1%,,,CNC(=O)c1cccc2nc(-c3cc(Br)nn3-c3ncccc3Cl)[nH]c12
1.3%,,,COc1ccc(NC(=O)c2cccc3nc(-c4cc(Br)nn4-c4ncccc4Cl)[nH]c23)c(OC)c1
49.4%,,,O=C(Nc1ccccc1)c1cccc2nc(-c3cc(Br)nn3-c3ncccc3Cl)[nH]c12
32%,,,O=C(NCc1ccc(C(F)(F)F)cc1)c1cccc2nc(-c3cc(Br)nn3-c3ncccc3Cl)[nH]c12
43%,,,O=C(NCc1c(F)ccc(F)c1F)c1cccc2nc(-c3cc(Br)nn3-c3ncccc3Cl)[nH]c12
60.5%,178 nM,2,COc1ccccc1NC(=O)c1cccc2nc(-c3cc(Br)nn3-c3ncccc3Cl)[nH]c12
30.1%,,,CCCNC(=O)c1cccc2oc(-c3cc(Br)nn3-c3ncccc3Cl)nc12
